Where “and” joins values, the source holds several entries; their conditions need not be identical. Equal values may be shown once. Where a name gives a salt, the structure may show the parent alone.
Tests used:
[1] = Oral gavage pharmacokinetics in rats, plasma oxycodone by LC-MS/MS; settings: 0.89 mg/kg oral, rat; for Plasma Concentration (oxycodone), Mean: mean of the N quantifiable subjects
[2] = Oral gavage pharmacokinetics in rats, plasma oxymorphone by LC-MS/MS; settings: for concentration at 0.25 h / concentration at 0.5 h / concentration at 1 h / concentration at 2 h / concentration at 3 h / concentration at 4 h / concentration at 6 h: oral, Plasma oxymorphone
[3] = 1.77 mg/kg Oxymorphone HCl oral, rat, hydrochloride

COc1ccc2c3c1O[C@H]1C(OC(=O)C[C@H](OC(=O)C[C@H](O)C(=O)O)C(=O)O)=CC[C@@]4(O)[C@@H](C2)N(C)CC[C@]314 [Oxycodone Dimalate, (S)-4-((S)-1-Carboxy-3-(((4R,4aS,7aR,12bS)-4a-hydroxy-9-methoxy-3-methyl-2,3,4,4a,5,7a-hexahydro-1H-4,12-methanobenzofuro[3,2-e]isoquinolin-7-yl)oxy)-3-oxopropoxy)-2-hydroxy-4-oxobutanoic acid trifluoroacetic acid salt]
Plasma Concentration (oxycodone) by Subject ([1]; 0.25 h): BLQ | Plasma Concentration (oxycodone), Mean ([1]; 0.25 h): BLQ | Plasma Concentration (oxycodone) by Subject ([1]; 0.5 h): BLQ | Plasma Concentration (oxycodone), Mean ([1]; 0.5 h): BLQ | Plasma Concentration (oxycodone) by Subject ([1]; 2 h): BLQ | Plasma Concentration (oxycodone), Mean ([1]; 2 h): BLQ | Plasma Concentration (oxycodone) by Subject ([1]; 3 h): BLQ | Plasma Concentration (oxycodone), Mean ([1]; 3 h): BLQ | Plasma Concentration (oxycodone) by Subject ([1]; 4 h): BLQ | Plasma Concentration (oxycodone), Mean ([1]; 4 h): BLQ | Plasma Concentration (oxycodone) by Subject ([1]; 6 h): BLQ | Plasma Concentration (oxycodone), Mean ([1]; 6 h): BLQ

COc1ccc2c3c1O[C@H]1C(=O)CC[C@@]4(O)[C@@H](C2)N(C)CC[C@]314.Cl [Oxycodone HCl, oxycodone HCl]
Plasma Concentration (oxycodone) by Subject ([1]; 2 h): BLQ | Plasma Concentration (oxycodone), Mean ([1]; 2 h): BLQ | Plasma Concentration (oxycodone) by Subject ([1]; 3 h): BLQ | Plasma Concentration (oxycodone), Mean ([1]; 3 h): BLQ | Plasma Concentration (oxycodone) by Subject ([1]; 4 h): BLQ | Plasma Concentration (oxycodone), Mean ([1]; 4 h): BLQ | Plasma Concentration (oxycodone) by Subject ([1]; 6 h): BLQ | Plasma Concentration (oxycodone), Mean ([1]; 6 h): BLQ

COc1ccc2c3c1O[C@H]1C(OC(=O)[C@H](C)O)=CC[C@@]4(O)[C@@H](C2)N(C)CC[C@]314 [Oxycodone Lactate, (S)-(4R,4aS,7aR,12bS)-4a-Hydroxy-9-methoxy-3-methyl-2,3,4,4a,5,7a-hexahydro-1H-4,12-methanobenzofuro[3,2-e]isoquinolin-7-yl 2-hydroxypropanoate trifluoroacetic acid salt]
Plasma Concentration (oxycodone) by Subject ([1]; 6 h): BLQ | Plasma Concentration (oxycodone), Mean ([1]; 6 h): BLQ

COc1ccc2c3c1O[C@H]1C(OC(=O)C[C@H](O)C(=O)O)=CC[C@@]4(O)[C@@H](C2)N(C)CC[C@]314.Cl [Oxycodone Malate, (S)-2-Hydroxy-4-(((4R,4aS,7aR,12bS)-4a-hydroxy-9-methoxy-3-methyl-2,3,4,4a,5,7a-hexahydro-1H-4,12-methanobenzofuro[3,2-e]isoquinolin-7-yl)oxy)-4-oxobutanoic acid hydrochloride]
Plasma Concentration (oxycodone) by Subject ([1]; 6 h): BLQ | Plasma Concentration (oxycodone), Mean ([1]; 6 h): BLQ

COc1ccc2c3c1O[C@H]1C(OC(=O)[C@H](O)c4ccccc4)=CC[C@@]4(O)[C@@H](C2)N(C)CC[C@]314 [Oxycodone Mandelate, (R)-(4R,4aS,7aR,12bS)-4a-Hydroxy-9-methoxy-3-methyl-2,3,4,4a,5,7a-hexahydro-1H-4,12-methanobenzofuro[3,2-e]isoquinolin-7-yl 2-hydroxy-2-phenylacetate trifluoroacetic acid salt]
Plasma Concentration (oxycodone) by Subject ([1]; 4 h): BLQ | Plasma Concentration (oxycodone), Mean ([1]; 4 h): BLQ | Plasma Concentration (oxycodone) by Subject ([1]; 6 h): BLQ | Plasma Concentration (oxycodone), Mean ([1]; 6 h): BLQ

CN1CC[C@]23c4c5ccc(O)c4O[C@H]2C(=O)CC[C@@]3(O)[C@H]1C5 [Oxymorphone HCl, oxymorphone hydrochloride]
Plasma oxymorphone, individual rats ([2]; 1.77 mg/kg Oxymorphone HCl oral, rat, 0.25 h, hydrochloride): 0.379 ng/mL and 0.862 ng/mL and 1.144 ng/mL | Plasma oxymorphone, individual rats ([2]; 1.77 mg/kg Oxymorphone HCl oral, rat, 0.5 h, hydrochloride): 0.343 ng/mL and 0.925 ng/mL and 0.799 ng/mL | Plasma oxymorphone, individual rats ([2]; 1.77 mg/kg Oxymorphone HCl oral, rat, 1 h, hydrochloride): 0.545 ng/mL and 1.557 ng/mL and 1.110 ng/mL | Plasma oxymorphone, individual rats ([2]; 1.77 mg/kg Oxymorphone HCl oral, rat, 2 h, hydrochloride): 0.728 ng/mL and 1.826 ng/mL and 0.621 ng/mL | Plasma oxymorphone, individual rats ([2]; 1.77 mg/kg Oxymorphone HCl oral, rat, 3 h, hydrochloride): 0.676 ng/mL and BQL (BQL: <0.200 ng/mL) | Plasma oxymorphone, individual rats ([2]; 1.77 mg/kg Oxymorphone HCl oral, rat, 4 h, hydrochloride): 0.429 ng/mL and BQL (BQL: <0.200 ng/mL) | Plasma oxymorphone, individual rats ([2]; 1.77 mg/kg Oxymorphone HCl oral, rat, 6 h, hydrochloride): BQL (BQL: <0.200 ng/mL) | Cmax of plasma oxymorphone, individual rats [2, 3]: 0.728 ng/mL and 1.826 ng/mL and 1.144 ng/mL | Tmax of plasma oxymorphone, individual rats [2, 3]: 2.00 h (2×) and 0.25 h | Plasma oxymorphone, individual rats ([2]; 3.54 mg/kg Oxymorphone HCl oral, rat, 0.25 h, hydrochloride): 4.958 ng/mL and 3.246 ng/mL and 1.767 ng/mL | Plasma oxymorphone, individual rats ([2]; 3.54 mg/kg Oxymorphone HCl oral, rat, 0.5 h, hydrochloride): 4.716 ng/mL and 2.469 ng/mL and 2.095 ng/mL | Plasma oxymorphone, individual rats ([2]; 3.54 mg/kg Oxymorphone HCl oral, rat, 1 h, hydrochloride): 3.423 ng/mL and 2.146 ng/mL and 0.913 ng/mL | Plasma oxymorphone, individual rats ([2]; 3.54 mg/kg Oxymorphone HCl oral, rat, 2 h, hydrochloride): 2.434 ng/mL and 1.639 ng/mL | Plasma oxymorphone, individual rats ([2]; 3.54 mg/kg Oxymorphone HCl oral, rat, 3 h, hydrochloride): 0.577 ng/mL and 1.635 ng/mL and 1.276 ng/mL | Plasma oxymorphone, individual rats ([2]; 3.54 mg/kg Oxymorphone HCl oral, rat, 4 h, hydrochloride): 0.545 ng/mL and 0.618 ng/mL | Plasma oxymorphone, individual rats ([2]; 3.54 mg/kg Oxymorphone HCl oral, rat, 6 h, hydrochloride): 0.796 ng/mL and 0.774 ng/mL | concentration at 0.25 h ([2]; male, Sprague Dawley, rat, plasma, 1.77 mg/kg, Mean, 1.77 mg/kg Oxymorphone HCl oral, 0.25 h): 0.795 ng/mL | concentration at 0.5 h ([2]; male, Sprague Dawley, rat, plasma, 1.77 mg/kg, Mean, 1.77 mg/kg Oxymorphone HCl oral, 0.5 h): 0.689 ng/mL | concentration at 1 h ([2]; male, Sprague Dawley, rat, plasma, 1.77 mg/kg, Mean, 1.77 mg/kg Oxymorphone HCl oral, 1 h): 1.07 ng/mL | concentration at 2 h ([2]; male, Sprague Dawley, rat, plasma, 1.77 mg/kg, Mean, 1.77 mg/kg Oxymorphone HCl oral, 2 h): 1.06 ng/mL | concentration at 3 h ([2]; male, Sprague Dawley, rat, plasma, 1.77 mg/kg, Mean, 1.77 mg/kg Oxymorphone HCl oral, 3 h): 0.378 ng/mL | concentration at 4 h ([2]; male, Sprague Dawley, rat, plasma, 1.77 mg/kg, Mean, 1.77 mg/kg Oxymorphone HCl oral, 4 h): 0.312 ng/mL | concentration at 6 h ([2]; male, Sprague Dawley, rat, plasma, 1.77 mg/kg, Mean, 1.77 mg/kg Oxymorphone HCl oral, 6 h): 0.6 ng/mL | concentration at 3 h ([2]; male, Sprague Dawley, rat, plasma, 1.77 mg/kg, individual rats, 1.77 mg/kg Oxymorphone HCl oral, 3 h): 0.457 ng/mL | concentration at 4 h ([2]; male, Sprague Dawley, rat, plasma, 1.77 mg/kg, individual rats, 1.77 mg/kg Oxymorphone HCl oral, 4 h): 0.508 ng/mL | concentration at 6 h ([2]; male, Sprague Dawley, rat, plasma, 1.77 mg/kg, individual rats, 1.77 mg/kg Oxymorphone HCl oral, 6 h): 1.8 ng/mL | concentration at 0.25 h ([2]; male, Sprague Dawley, rat, plasma, 3.54 mg/kg, Mean, 3.54 mg/kg Oxymorphone HCl oral, 0.25 h): 3.32 ng/mL | concentration at 0.5 h ([2]; male, Sprague Dawley, rat, plasma, 3.54 mg/kg, Mean, 3.54 mg/kg Oxymorphone HCl oral, 0.5 h): 3.09 ng/mL | concentration at 1 h ([2]; male, Sprague Dawley, rat, plasma, 3.54 mg/kg, Mean, 3.54 mg/kg Oxymorphone HCl oral, 1 h): 2.16 ng/mL | concentration at 2 h ([2]; male, Sprague Dawley, rat, plasma, 3.54 mg/kg, Mean, 3.54 mg/kg Oxymorphone HCl oral, 2 h): 1.78 ng/mL | concentration at 3 h ([2]; male, Sprague Dawley, rat, plasma, 3.54 mg/kg, Mean, 3.54 mg/kg Oxymorphone HCl oral, 3 h): 1.16 ng/mL | concentration at 4 h ([2]; male, Sprague Dawley, rat, plasma, 3.54 mg/kg, Mean, 3.54 mg/kg Oxymorphone HCl oral, 4 h): 0.499 ng/mL | concentration at 6 h ([2]; male, Sprague Dawley, rat, plasma, 3.54 mg/kg, Mean, 3.54 mg/kg Oxymorphone HCl oral, 6 h): 0.674 ng/mL | concentration at 2 h ([2]; male, Sprague Dawley, rat, plasma, 3.54 mg/kg, individual rats, 3.54 mg/kg Oxymorphone HCl oral, 2 h): 1.27 ng/mL | concentration at 4 h ([2]; male, Sprague Dawley, rat, plasma, 3.54 mg/kg, individual rats, 3.54 mg/kg Oxymorphone HCl oral, 4 h): 0.335 ng/mL | concentration at 6 h ([2]; male, Sprague Dawley, rat, plasma, 3.54 mg/kg, individual rats, 3.54 mg/kg Oxymorphone HCl oral, 6 h): 0.453 ng/mL | Cmax ([2]; male, Sprague Dawley, rat, plasma, po, 1.77 mg/kg, Cmax of plasma oxymorphone, Mean, 1.77 mg/kg Oxymorphone HCl oral): 1.23 ng/mL | Tmax ([2]; male, Sprague Dawley, rat, plasma, po, 1.77 mg/kg, Tmax of plasma oxymorphone, Mean, 1.77 mg/kg Oxymorphone HCl oral): 1.42 h

CCCCCCCC/C=C\CCCCCCCC(=O)OC1=CC[C@@]2(O)[C@H]3Cc4ccc(O)c5c4[C@@]2(CCN3C)[C@H]1O5 [Oxymorphone Oleate, trifluoroacetic acid salt]
Plasma oxymorphone, individual rats ([2]; 7.12 mg/kg oral, Ex No. B3, rat, 0.25 h, trifluoroacetic acid salt): BQL (BQL: <0.200 ng/mL) | Plasma oxymorphone, individual rats ([2]; 7.12 mg/kg oral, Ex No. B3, rat, 0.5 h, trifluoroacetic acid salt): BQL (BQL: <0.200 ng/mL) | Plasma oxymorphone, individual rats ([2]; 7.12 mg/kg oral, Ex No. B3, rat, 2 h, trifluoroacetic acid salt): BQL (BQL: <0.200 ng/mL)

— patent US10695342B2, “Methods and compositions for preventing opioid abuse” (Albany Molecular Research, Inc., priority 2015, dated 2020)
